“Also recorded” adds a separate entry of the source.
Tests used:
[1] = metabolic stability in hepatocytes, rat; assay type: in vitro ADME
[2] = metabolic stability in liver microsomes, minipig; assay type: in vitro ADME
IL17A mRNA = test: sRICA ex vivo human skin explant, IL17A expression; assay type: cell-based; settings: 10 μM, Th17 polarizing conditions
From the text: A liquid-air interface skin explant culture with the in situ activation of immunocompetent cells, termed sRICA for skin-Resident Immune Cell Activation model was previously reported (Smith et al., (2016) PLoS One, 11(2)). In this assay, specific cytokine profiles of inflammatory skin diseases can be induced, including the Th17-type cytokines, IL17A, IL17F and IL22. Reduction of biomarkers in this assay indicates biological activity of the test compound.
Ex vivo human skin obtained from abdominoplasty surgery was processed to remove fat and dermatomed the tissue to ˜750 microns. Dermatomed skin was then cleaned in two serial rinses of 5-10 minutes each in room temperature PBS containing an antibiotic/antimycotic solution.
Skin was treated as asceptic from this point on; all further manipulations were performed in a class II biosafety cabinet. […]
The harvested skin tissue were stored in RNAlater until use. […] RNA was diluted to a concentration of 23.6 ng/ul (total of 100 ng RNA), and was used as template in a 10 uL PCR volume using Applied Biosciences RNA-to-CT 1 Step kit (AB Catalog # 4392938) and the specific TaqMan probes foreach gene to be quantified. […]
RNA levels of gene of interest's Relative Expression was calculated using the Delta Delta CT formula.
RNA was isolated from the tissue harvested at 24 hr and 48 hr post stimulation and gene expression was assessed by quantitative PCR. […]

[3] = test system: imiquimod (IMQ)-treated mouse; test: IMQ mouse model of psoriasis; assay type: in vivo; settings: for IL-17% effect vs. IMQ + SEM / IL-17F %effect vs IMQ + SEM: tissue mRNA
Method: Female BALB/c mice (BALB/cByJRj) were purchased from Janvier (France). Mice are allowed to eat a normal diet AO4C from SAFE (France) and drink ad libitum. BALB/c JByRj female mice (8 week-old at study initiation) are treated with imiquimod (IMQ) cream (5%) or vanicream (non-inflammatory inert cream). For three days of pre-treatment, and then daily until the end of the study (two hours before each application of IMQ), the same skin area is treated topically with 100 μL of compound. Mice are monitored for changes in clinical symptoms over the course of the study. Affected back skin is examined by histology and qPCR for evidence of compound efficacy.
Starting 3 days after first treatment, IMQ cream was applied daily for 4 (StudyA) or 10 days (Study B). Clinical scoring was monitored daily (FIG. 5A, FIG. 5B). At the end of the study, treated skin was evaluated by histology and qPCR for induced cytokine gene expression.
On days 0, 1, 2, 3: visual evaluation of the skin and psoriasis clinical scorewere noted.
Psoriasis reactions (erythema and plaques) are reported according to a 0-4 scale in ascending order of severity as shown below and results are shown in FIG. 5A1.
On the last day of treatment, a 6 mm punch of skin in the treated area is collected on a aluminium sheet (to keep the skin flattened) and placed into a tube containing Formalin solution (Neutral Buffered 10% (SIGMA HT501320-9 5L)) for histological analysis (FIG. 5A2).
On days 0, 1, 2, 3, 4, 5, 6, 7,8, 9: visual evaluation of the skin and psoriasis clinical score were noted.
Psoriasis reactions (erythema and plaques) are reported according to a 0-4 scale in ascending order of severity as shown below and results are shown in FIG. 5B1.
On the last day of treatment, a 6 mm punch of skin in the treated area is collected on a aluminium sheet (to keep the skin flattened) and placed into a tube containing Formalin solution (Neutral Buffered 10% (SIGMA HT501320-9 5L)) for histological analysis (FIG. 5B2).

[4] = metabolic stability in liver microsomes, human; assay type: in vitro ADME
[5] = metabolic stability in liver microsomes, rat; assay type: in vitro ADME

## CC(C)c1c(O)cc(-c2cc3ccccc3cn2)cc1O
[1]; rat
  in vitro-to-in vivo extrapolation (IVIVE) ratio: 0.45
[1]; rat hepatocytes, 0.5 μM
  CLint, hep: 44.4 mL/min/g liver
  half-life at 0.5 μM: 3.37 min
[1]; rat hepatocytes, 0.5 μM, read-out: Scaled CLint, hep
  CLint scaled at 0.5 μM: 1600 mL/min/kg
[2]; minipig liver microsomes, 0.5 μM
  CLint, mic: 3.01 mL/min/g liver
[2]; minipig liver microsomes, 0.5 μM, read-out: Scaled CLint, mic
  CLint scaled at 0.5 μM: 50.3 mL/min/kg
[2]; minipig, microsomes
  half-life at 0.5 μM: 24.2 min
IL17A mRNA
  inhibition of IL17A message expression: ~45%
[3]; Study A, 0.3% + IMQ
  IL-17% effect vs. IMQ + SEM: 16.27 + 4.816%
  IL-17F %effect vs IMQ + SEM: 22.21 + 7.418%
[3]; Study B, 0.1% + IMQ
  IL-17% effect vs. IMQ + SEM: 78.48 + 18.771%
  IL-17F %effect vs IMQ + SEM: 45.23 + 9.519%
[3]; Study B, 0.3% + IMQ
  IL-17% effect vs. IMQ + SEM: 79.33 + 22.900%
  IL-17F %effect vs IMQ + SEM: 60.01 + 12.229%
[3]; daily topical, 60% EtOH: 40% H2O solution, vs vehicle-treated mice
  clinical score: reduced clinical score
[3]; topical, qPCR
  skin cytokine gene expression (IL-17A, IL-17F): significantly inhibited; also recorded: reduced cytokine gene expression
[3]; topical, skin histology
  epidermis thickening induced by imiquimod: reduce the epidermis thickening; also recorded: reduced epidermal thickening
[4]; human liver microsomes, 0.5 μM
  CLint, mic: 1.35 mL/min/g liver
[4]; human liver microsomes, 0.5 μM, read-out: Scaled CLint, mic
  CLint scaled at 0.5 μM: 33.1 mL/min/kg
[4]; human, microsomes
  half-life at 0.5 μM: 40.9 min
[5]; rat liver microsomes, 0.5 μM
  CLint, mic: 6.21 mL/min/g liver
[5]; rat liver microsomes, 0.5 μM, read-out: Scaled CLint, mic
  CLint scaled at 0.5 μM: 224 mL/min/kg
[5]; rat, microsomes
  half-life at 0.5 μM: 10.3 min
